Calls of active or inactive are those of the source.
What was measured:
[1] = molecular target: 26S proteasome non-ATPase regulatory subunit 14 (Homo sapiens, UniProt O00487); assay: inhibition of proteasome subunit RPN11 – biochemical, fluorescence polarization, uHTS hits, confirmation (AID 602368); type: functional
[2] = molecular target: 72 kDa type IV collagenase (Homo sapiens, UniProt P08253); assay: Dose Response validation of uHTS RPN11 inhibitor hits using a MMP-2 Fluorescence assay.; type: functional
[3] = molecular target: Prothrombin (Bos taurus, UniProt P00735); assay: thrombin protease inhibitors – biochemical, fluorescence polarization, uHTS hits, dose response (AID 602369); type: functional
[4] = molecular target: T1, Rac GTPase-activating protein 1 (Homo sapiens, UniProt Q9H0H5); assay: blockers of MgcRacGAP-driven Rac1 GTP hydrolysis – biochemical, ADP Hunter fluorescence, primary and confirmatory, confirmation (AID 624330); type: functional
T1 sequence (Q9H0H5 whole entry): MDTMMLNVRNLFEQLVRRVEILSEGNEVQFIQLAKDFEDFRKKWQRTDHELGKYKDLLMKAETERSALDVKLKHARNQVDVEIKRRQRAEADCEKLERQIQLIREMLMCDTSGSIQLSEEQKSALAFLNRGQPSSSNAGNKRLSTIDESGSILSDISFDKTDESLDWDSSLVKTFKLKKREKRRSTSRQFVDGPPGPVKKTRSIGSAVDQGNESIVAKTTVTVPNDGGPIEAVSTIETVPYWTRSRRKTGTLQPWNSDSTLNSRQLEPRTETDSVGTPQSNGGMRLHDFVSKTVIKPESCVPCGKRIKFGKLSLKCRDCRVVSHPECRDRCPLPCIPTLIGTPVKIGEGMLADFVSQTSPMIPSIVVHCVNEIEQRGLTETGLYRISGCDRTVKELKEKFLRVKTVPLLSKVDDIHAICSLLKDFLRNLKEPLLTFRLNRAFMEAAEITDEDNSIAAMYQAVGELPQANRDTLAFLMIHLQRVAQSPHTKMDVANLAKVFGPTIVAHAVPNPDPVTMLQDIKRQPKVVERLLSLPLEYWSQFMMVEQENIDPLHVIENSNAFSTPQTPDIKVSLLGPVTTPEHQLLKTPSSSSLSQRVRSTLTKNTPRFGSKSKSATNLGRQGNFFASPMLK

[5] = NIH-3T3 fibroblast cytotoxicity, dose response, cytotoxicity control, cell-based, fluorescence, Alamar Blue, secondary assay (AID 2327); type: functional;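 note: NIH-3T3 mouse fibroblasts cultured with fluconazole at 8 µg/mL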
[6] = fluconazole-exposed Candida albicans growth modulators – fluorescence, retest, confirmation (AID 2467); type: functional, cell-based
[7] = molecular target: T2, Serine/threonine-protein phosphatase (Candida dubliniensis (strain CD36 / CBS 7987 / NCPF 3949 / NRRLY-17841) (Yeast), UniProt B9W6M3); assay: blockers of CaCl2-induced CDRE-lacZ signaling – S. cerevisiae, luminescence, secondary, dose response (AID 2388); type: functional, cell-based;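 note: yeast reporter cells carrying a calcineurin-responsive lacZ construct stimulated with calcium chloride; luminescent beta-galactosidase reporter signal in whole cells rather than isolated phosphatase activity; potency for inhibition where a drop in reporter signal means calcineurin blockade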
T2 sequence (B9W6M3 whole entry): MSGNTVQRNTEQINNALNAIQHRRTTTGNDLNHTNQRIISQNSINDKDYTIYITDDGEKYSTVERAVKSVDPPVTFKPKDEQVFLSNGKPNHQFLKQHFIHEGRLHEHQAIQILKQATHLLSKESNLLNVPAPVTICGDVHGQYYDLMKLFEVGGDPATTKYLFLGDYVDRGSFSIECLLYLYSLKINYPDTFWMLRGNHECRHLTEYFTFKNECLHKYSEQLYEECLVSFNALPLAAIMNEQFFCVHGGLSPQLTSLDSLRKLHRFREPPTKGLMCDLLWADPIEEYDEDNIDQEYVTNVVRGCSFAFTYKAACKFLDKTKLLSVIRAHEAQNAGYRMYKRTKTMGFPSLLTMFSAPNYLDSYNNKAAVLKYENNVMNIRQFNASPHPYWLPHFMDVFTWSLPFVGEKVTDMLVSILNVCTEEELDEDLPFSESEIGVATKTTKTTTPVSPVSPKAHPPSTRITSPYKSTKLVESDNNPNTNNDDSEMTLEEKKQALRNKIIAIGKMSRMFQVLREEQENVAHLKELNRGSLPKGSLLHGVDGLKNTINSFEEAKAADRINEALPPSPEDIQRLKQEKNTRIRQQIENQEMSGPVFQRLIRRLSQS

[8] = molecular target: ATP-dependent molecular chaperone HSP82 (Candida albicans (strain WO-1) (Yeast), UniProt C4YTQ8); assay: steroid-induced GRE reporter decrease in yeast – S. cerevisiae, luminescence, Hsp90 inhibitor project, dose response (AID 2400); type: functional, cell-based;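 note: beta-galactosidase luminescence from glucocorticoid response element reporter as proxy for Hsp90 function; inhibitor potency where signal loss means Hsp90 inhibition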
[9] = molecular target: T3, Corticotropin-releasing factor receptor 2/Corticotropin-releasing factor-binding protein (Homo sapiens, UniProt P24387+Q13324); assay: activators of CRF receptor 2 with binding protein – uHTS hits, confirmation (AID 602473); type: functional; details: read-out: EC50_Mean
T3 sequence (Q13324 whole entry): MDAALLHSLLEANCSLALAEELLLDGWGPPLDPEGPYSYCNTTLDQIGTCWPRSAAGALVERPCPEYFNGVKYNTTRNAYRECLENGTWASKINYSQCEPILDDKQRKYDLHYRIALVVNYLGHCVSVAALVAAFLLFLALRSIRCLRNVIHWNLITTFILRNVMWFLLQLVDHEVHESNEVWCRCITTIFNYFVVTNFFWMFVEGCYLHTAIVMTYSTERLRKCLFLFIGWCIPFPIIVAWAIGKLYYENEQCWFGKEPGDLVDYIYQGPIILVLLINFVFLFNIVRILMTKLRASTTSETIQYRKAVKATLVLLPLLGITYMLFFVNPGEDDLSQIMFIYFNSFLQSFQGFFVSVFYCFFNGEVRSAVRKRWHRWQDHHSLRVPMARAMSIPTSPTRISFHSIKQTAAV
T3 sequence (P24387 whole entry): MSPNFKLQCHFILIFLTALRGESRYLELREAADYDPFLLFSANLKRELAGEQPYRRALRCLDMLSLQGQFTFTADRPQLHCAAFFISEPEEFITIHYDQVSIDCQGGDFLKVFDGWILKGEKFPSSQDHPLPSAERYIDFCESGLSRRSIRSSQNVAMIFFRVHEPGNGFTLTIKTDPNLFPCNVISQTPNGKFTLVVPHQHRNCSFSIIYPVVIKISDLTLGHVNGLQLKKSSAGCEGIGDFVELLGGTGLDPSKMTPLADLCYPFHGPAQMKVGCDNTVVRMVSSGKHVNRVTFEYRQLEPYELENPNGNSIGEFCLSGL

[10] = system: Streptococcus sp. 'group A'; assay: Streptococcus pyogenes SK(-)GAS viability under kanamycin – luminescence, BacTiterGlo, confirmation, counter-screen for streptokinase expression inhibitor project, dose response (AID 1900); type: functional, organism-based
[11] = molecular target: T4, Streptokinase A (Streptococcus pyogenes serotype M1, UniProt P10520); assay: viability-normalized secreted streptokinase activity reduction – plasminogen activation absorbance, OD405, dose response (AID 1914); type: functional, Streptococcus pyogenes M1 GAS;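 note: secreted streptokinase activity via plasminogen activation per viability signal from cell pellet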
T4 sequence (P10520 whole entry): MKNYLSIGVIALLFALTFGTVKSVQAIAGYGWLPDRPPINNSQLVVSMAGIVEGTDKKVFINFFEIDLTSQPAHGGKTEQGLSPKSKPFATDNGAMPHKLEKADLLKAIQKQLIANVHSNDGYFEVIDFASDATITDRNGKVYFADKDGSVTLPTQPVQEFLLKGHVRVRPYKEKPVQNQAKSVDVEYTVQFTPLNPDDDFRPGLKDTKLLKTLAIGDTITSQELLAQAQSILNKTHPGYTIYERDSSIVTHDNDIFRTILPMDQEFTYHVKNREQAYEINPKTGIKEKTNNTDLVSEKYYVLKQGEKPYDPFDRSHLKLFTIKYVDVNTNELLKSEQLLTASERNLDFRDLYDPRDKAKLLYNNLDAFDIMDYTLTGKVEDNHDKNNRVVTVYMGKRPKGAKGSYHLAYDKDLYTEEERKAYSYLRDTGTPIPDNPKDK

[12] = system: Streptococcus; assay: GAS UMAA2166 growth inhibition – luminescence, BacTiterGlo, counter-screen for streptokinase expression inhibitor project, dose response (AID 1915); type: functional, organism-based;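 note: potency for reduction of bacterial viability or growth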
[13] = system: H9c2; assay: cells; type: functional, cell-based; details: Rattus norvegicus, H9c2, Myocardium;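 note: confirmatory concentration-response retest of ultra-high-throughput screening hits for modulation of myocardial damage; cell death induced by hydrogen peroxide oxidative stress; compound pretreatment for 60 min then peroxide exposure for 2 h; potency is for protecting the cells against peroxide damage rather than for killing them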
[14] = viability loss in HeLa cells – cytotoxicity control for MgcRacGAP inhibitor project, dose response (AID 624300); type: functional
[15] = Luminescence Cell-Based Dose Retest to Confirm Inhibitors of Cancer Stem Cells. [Related pubchem assays (depositor defined):AID2717, AID2721]; type: functional; details: Homo sapiens
[16] = molecular target: T5, Heat shock factor protein 1 (Mus musculus, UniProt P38532); assay: enhancement of HSF1-driven luciferase signal – cell-based, NIH3T3, luminescence, dose retest, confirmation (AID 435004); type: functional;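 note: stress induced by proteasome inhibitor MG132 added 30 min after compound; luciferase reporter driven by HSF1 response element in NIH3T3 cells; actives raise luminescence as potentiators of the MG132 stress response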
T5 sequence (P38532 whole entry): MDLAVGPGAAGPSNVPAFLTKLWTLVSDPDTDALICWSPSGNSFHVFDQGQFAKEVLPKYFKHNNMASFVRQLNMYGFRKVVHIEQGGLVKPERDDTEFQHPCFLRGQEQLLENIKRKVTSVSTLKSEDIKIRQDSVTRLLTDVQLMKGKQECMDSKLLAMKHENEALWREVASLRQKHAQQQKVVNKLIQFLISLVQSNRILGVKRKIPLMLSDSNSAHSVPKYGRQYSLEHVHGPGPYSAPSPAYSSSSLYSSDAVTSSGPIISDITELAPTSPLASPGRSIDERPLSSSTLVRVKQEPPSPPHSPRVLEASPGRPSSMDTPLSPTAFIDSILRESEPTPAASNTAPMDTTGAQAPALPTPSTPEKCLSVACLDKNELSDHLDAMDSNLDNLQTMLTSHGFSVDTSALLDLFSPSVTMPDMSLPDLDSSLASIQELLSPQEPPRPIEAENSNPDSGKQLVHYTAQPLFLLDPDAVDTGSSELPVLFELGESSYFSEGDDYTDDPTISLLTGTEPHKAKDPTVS

[17] = molecular target: T6, Small ubiquitin-related modifier 1 (Homo sapiens, UniProt P63165); assay: SUMO1 protein interaction blockers, potency – biochemical, fluorescence polarization, uHTS hits, dose response (AID 624382); type: functional; details: read-out: IC50_Mean
[18] = molecular target: T6, Small ubiquitin-related modifier 1; assay: SUMO1 protein-protein binding blockers, potency – biochemical, FRET, dose response (AID 624383); type: functional; details: read-out: IC50_Mean
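Throughout, for AC50: cells exposed to compound for roughly 70 hours or longer before luminescence read.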

T6 sequence (P63165 whole entry): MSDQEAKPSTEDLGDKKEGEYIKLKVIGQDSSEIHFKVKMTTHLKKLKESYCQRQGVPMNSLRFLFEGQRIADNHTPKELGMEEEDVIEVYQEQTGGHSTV
Chain of ATP-dependent molecular chaperone HSP82 (C4YTQ8 whole entry): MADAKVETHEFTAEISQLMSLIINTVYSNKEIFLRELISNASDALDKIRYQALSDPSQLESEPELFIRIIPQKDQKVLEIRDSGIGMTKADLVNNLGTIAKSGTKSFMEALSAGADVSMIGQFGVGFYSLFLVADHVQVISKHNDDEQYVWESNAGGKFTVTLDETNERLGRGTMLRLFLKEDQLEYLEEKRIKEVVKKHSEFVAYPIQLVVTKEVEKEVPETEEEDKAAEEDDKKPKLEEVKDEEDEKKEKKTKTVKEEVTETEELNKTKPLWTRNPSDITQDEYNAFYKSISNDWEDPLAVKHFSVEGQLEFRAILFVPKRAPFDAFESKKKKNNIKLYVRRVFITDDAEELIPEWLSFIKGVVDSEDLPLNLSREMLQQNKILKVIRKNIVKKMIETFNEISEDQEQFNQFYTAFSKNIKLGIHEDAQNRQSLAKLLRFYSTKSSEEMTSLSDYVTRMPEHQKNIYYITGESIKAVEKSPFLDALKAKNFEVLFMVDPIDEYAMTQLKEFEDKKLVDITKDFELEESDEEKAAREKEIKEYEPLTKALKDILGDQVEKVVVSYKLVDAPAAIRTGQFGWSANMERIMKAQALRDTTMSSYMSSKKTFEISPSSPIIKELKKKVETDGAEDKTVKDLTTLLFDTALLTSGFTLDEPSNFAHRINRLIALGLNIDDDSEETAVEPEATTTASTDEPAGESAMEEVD
Chain of 72 kDa type IV collagenase (P08253 whole entry): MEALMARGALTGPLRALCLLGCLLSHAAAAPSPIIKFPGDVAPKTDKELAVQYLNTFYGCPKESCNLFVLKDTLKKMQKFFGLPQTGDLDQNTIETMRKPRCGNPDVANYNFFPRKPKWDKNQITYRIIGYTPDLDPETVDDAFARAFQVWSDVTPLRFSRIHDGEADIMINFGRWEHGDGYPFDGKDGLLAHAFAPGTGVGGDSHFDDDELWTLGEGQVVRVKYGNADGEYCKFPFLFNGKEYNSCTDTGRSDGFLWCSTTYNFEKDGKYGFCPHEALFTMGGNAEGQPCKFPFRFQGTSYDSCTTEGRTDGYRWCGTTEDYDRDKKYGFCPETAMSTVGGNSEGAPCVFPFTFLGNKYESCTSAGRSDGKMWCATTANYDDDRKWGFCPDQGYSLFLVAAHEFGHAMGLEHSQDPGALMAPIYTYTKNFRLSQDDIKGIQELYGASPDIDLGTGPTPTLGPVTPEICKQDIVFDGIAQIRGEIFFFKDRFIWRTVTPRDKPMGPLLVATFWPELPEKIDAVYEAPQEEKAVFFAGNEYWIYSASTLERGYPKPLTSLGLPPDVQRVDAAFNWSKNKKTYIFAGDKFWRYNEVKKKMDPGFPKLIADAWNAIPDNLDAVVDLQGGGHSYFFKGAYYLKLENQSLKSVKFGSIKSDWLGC
Chain of 26S proteasome non-ATPase regulatory subunit 14 (O00487 whole entry): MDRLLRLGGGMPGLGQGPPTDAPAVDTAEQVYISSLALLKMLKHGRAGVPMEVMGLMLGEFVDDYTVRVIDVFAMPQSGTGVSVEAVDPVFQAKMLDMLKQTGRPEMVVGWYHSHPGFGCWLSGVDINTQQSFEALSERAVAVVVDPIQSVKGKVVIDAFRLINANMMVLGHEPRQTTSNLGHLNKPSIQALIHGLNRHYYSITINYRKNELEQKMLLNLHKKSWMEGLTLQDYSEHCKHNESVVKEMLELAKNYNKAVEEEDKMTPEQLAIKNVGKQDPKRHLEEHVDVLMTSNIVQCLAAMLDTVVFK

In the case of `CN1C=CC(=CC=C2C=CC(=O)C=C2)C=C1`, the IC50 [1] is reported as 31.2 µM (active), the IC50 [2] is reported as > 100 µM (inactive) and the IC50 [3] is reported as 62.7 µM (active). For the same molecule, the IC50 [4] was 18.4 µM (active).
In the case of `CCc1nnc(NC(=O)CSc2nc(SC)ns2)s1`, the EC50 [5] is reported as > 160 µM (inactive), the EC50 [6] is reported as 2.88 µM (active) and the EC50 [7] is reported as > 180 µM (inactive). The EC50 [8] was > 160 µM (inactive) and the EC50 [9] was > 53 µM (inactive).
With `CCOC(=O)c1c(N=C(S)NCC2CCCO2)sc(C)c1C` (stereo not drawn) the EC50 [5] was > 150 µM (inactive), the EC50 [6] was 0.635 µM (active) and the EC50 [7] was > 180 µM (inactive). The EC50 [8] was 16.9 µM (active).
With `COc1ccc(-n2c(/C=C/c3ccc(O)c(OC)c3)nc3ccccc3c2=O)cc1` the EC50 [10] was 22 µM (active), the EC50 [11] was > 150 µM (not active) and the EC50 [12] was 26.5 µM (active). The IC50 [13] was > 79 µM (inactive), the CC50 [14] was 71 µM (active) and the IC50 [4] was 52.4 µM (active).
With `Cn1cc([N+](=O)[O-])c(C(=O)Nc2ccc(-c3nc4ccccc4o3)cc2)n1` the AC50 [15] was 2.45 µM (active), the EC50 [16] was 6.61 µM (active) and the IC50 [17] was > 66.6 µM (inactive). For the same molecule, the IC50 [18] was 17.3 µM (active).
